Legend:
[1] = Slurry experiments at room temperature (thermodynamic stability of crystal forms, X-ray diffraction); format: physicochemical; conditions: for Slurry Result / Slurry result, large scale: room temperature; for Slurry Result: form by XRD; for Slurry result, large scale: 0.5 g of powder in 10 mL
Procedure: Slurry experiments of Form I were performed at room temperature to verify if Form I is the thermodynamic crystal form. 0.050 g of Form I was suspended in 2 ml of solvent and stirred for 1 week. The sample was filtered and analyzed by X-ray diffraction. In the large majority of the experiments, Form I converts into Form II. […] By 1,4-Dioxane, a new crystal form was obtained named Form V. See Table 46 for the Form I slurries results (7 days).
Further slurry experiments of Form I were performed at room temperature using 0.5 g of powder in 10 mL of solvent to confirm the results obtained even in large scale.
0.050 g of Form I were suspended in 2 ml of solvent and stirred at room temperature for 4 weeks (30 days). The sample was filtered and analyzed by X-ray diffraction. By 1,4-Dioxane, Form V was obtained. By tetrahydrofuran, Form II and Form VII were obtained. […] See Table 47 for the Form I slurries results (30 days).
(§1) Slurry experiments of mixtures of Form I and Form II were performed at room temperature to verify their thermodynamic stability. 0.040 g of Form I+0.040 g of Form II were suspended in 4 ml of solvent and stirred for 1 week (7 days). The samples were filtered and analyzed by X-ray diffraction. By 1,4-Dioxane, Form V was obtained. […] See Table 48 for the Form I+Form II slurries results (7 days).
as §1, with “II” for “I”, “III” for “II”, “II+0.040” for “I+0.040”, “49” for “48”, “II+Form III” for “I+Form II”
as §1, with “II” for “I”, “IV” for “II”, “II+0.040” for “I+0.040”, “50” for “48”, “II+Form IV” for “I+Form II”
as §1, with “II” for “I”, “V” for “II”, “II+0.040” for “I+0.040”, “51” for “48”, “II+Form V” for “I+Form II”
as §1, with “II” for “I”, “VI” for “II”, “II+0.040” for “I+0.040”, “52” for “48”, “II+Form VI” for “I+Form II”
as §1, with “II” for “I”, “VII” for “II”, “II+0.040” for “I+0.040”, “53” for “48”, “II+Form VII” for “I+Form II”

[2] = Forced degradation studies of bupropion hydrobromide and bupropion hydrochloride in closed bottles; format: physicochemical; conditions: about 40 degrees C., about 75% relative humidity
Procedure: Further stability tests were performed by directly comparing bupropion hydrobromide and bupropion hydrochloride salts in forced degradation studies. […] At specified times, the material in the bottles was analyzed for the presence of degradation products and % potency (% assay).

Structure (SMILES): Br.CC(NC(C)(C)C)C(=O)c1cccc(Cl)c1 (single isomer, unassigned) [Form I]
- Thermodynamic stability of the crystal form as shown by slurry experiments [1]: metastable form
- Slurry Result ([1]; 1,2-Dimethoxy Ethane, 7 days): Form II
- Slurry Result ([1]; 1,2-Dimethoxy Ethane, 30 days): Form II
- Slurry Result ([1]; 1,4-Dioxane, 7 days): Form V
- Slurry Result ([1]; 1,4-Dioxane, 30 days): Form V
- Slurry Result ([1]; 1-Octanol, 7 days): Form II
- Slurry Result ([1]; 1-Octanol, 30 days): Form II
- Slurry Result ([1]; 3-Pentanone, 7 days): Form II
- Slurry Result ([1]; 4-Methyl-2-Pentanone, 7 days): Form II
- Slurry Result ([1]; 4-Methyl-2-Pentanone, 30 days): Form II
- Slurry Result ([1]; Acetone, 7 days): Form II
- Slurry Result ([1]; Acetone, 30 days): Form II
- Slurry Result ([1]; Benzonitrile, 7 days): Form II + VII
- Slurry Result ([1]; Cyclohexane, 7 days): Form I
- Slurry Result ([1]; Cyclohexane, 30 days): Form II
- Slurry Result ([1]; Diethyl Carbonate, 7 days): Form II
- Slurry Result ([1]; Diethyl Carbonate, 30 days): Form II
- Slurry Result ([1]; Diethyl Ether, 30 days): Form II
- Slurry Result ([1]; Diethyl ether, 7 days): Form II
- Slurry Result ([1]; Ethyl Acetate (second line of the table), 30 days): Form II
- Slurry result, large scale ([1]; Ethyl Acetate): convert into Form II
- Slurry Result ([1]; Ethyl Benzoate, 7 days): Form II
- Slurry Result ([1]; Ethyl Formate, 7 days): Form II
- Slurry Result ([1]; Ethyl Formate, 30 days): Form II
- Slurry Result ([1]; Ethyl acetate, 7 days): Form II
- Slurry Result ([1]; Ethyl acetate, 30 days): Form II
- Slurry Result ([1]; Iso-Propyl Ether, 7 days): Form II
- Slurry Result ([1]; Iso-Propyl Ether, 30 days): Form II
- Slurry Result ([1]; Isopropyl Acetate, 7 days): Form II
- Slurry Result ([1]; Isopropyl Acetate, 30 days): Form II
- Slurry Result ([1]; Mesitylene, 7 days): Form II
- Slurry Result ([1]; Methyl Benzoate, 7 days): Form II
- Slurry Result ([1]; Methyl Benzoate, 30 days): Form II
- Slurry Result ([1]; Methyl Ethyl Ketone, 7 days): Form II
- Slurry Result ([1]; Methyl Ethyl Ketone, 30 days): Form II
- Slurry Result ([1]; Methyl-Cyclohexane, 7 days): Form I
- Slurry Result ([1]; Methyl-Cyclohexane, 30 days): Form II
- Slurry Result ([1]; Nitrobenzene, 7 days): Form II
- Slurry Result ([1]; Propyl Acetate, 7 days): Form II
- Slurry Result ([1]; Tert-Butanol, 7 days): Form II
- Slurry Result ([1]; Tetrahydrofuran, 7 days): Form II
- Slurry Result ([1]; Tetrahydrofuran, 30 days): Form II + VII
- Slurry Result ([1]; Toluene, 7 days): Form II
- Slurry Result ([1]; Toluene, 30 days): Form II
- Slurry Result ([1]; n-Hexan, 7 days): Form II
- Slurry Result ([1]; n-Hexan, 30 days): Form II
- Slurry result, large scale ([1]; p-Xylene): convert into Form II
- Slurry Result ([1]; p-Xylene, 7 days): Form II
- Slurry Result ([1]; p-Xylene, 30 days): Form II
- Slurry Result ([1]; t-Butyl Methyl Ether, 7 days): Form II
- Slurry Result ([1]; t-Butyl Methyl Ether, 30 days): Form II

Structure (SMILES): Br.CC(NC(C)(C)C)C(=O)c1cccc(Cl)c1 (centres unmarked) [Bupropion hydrobromide, 3′-chloro-2-t-butylamino-1-propiophenone hydrobromide]
- % potency compared to the bupropion hydrochloride salt [2]: generally higher
- amount of impurities compared to the bupropion hydrochloride salt [2]: generally lower
